Source: US20150175599A1, “FAAH Inhibitors” (Ironwood Pharmaceuticals, Inc., priority 2010, published 2015)

The compounds below were run against T1, human cannabinoid receptor, CB1 (Homo sapiens, UniProt P21554) (assay: Human CB1 cannabinoid receptor radioligand binding assay ([3H]-CP 55,940)). Settings: Table 4.
T1 construct: (cDNA clone) CNR01L000; membranes prepared from it
Source text: cDNA expression clones for human CB1 (hCB 1, Genbank Accession No. AY225225) expressed in vector pcDNA3.1+ were purchased from UMR cDNA Resource Center, Rolla, Mo. (Clone ID CNR01L000 for hCB 1).
Stable, HEK-293-derived cell lines that recombinantly express hCB 1 were established. In brief, the clone hCB 1 (CNR1L) was transfected into human embryonic kidney cells (HEK-293) using Lipofectamine 2000 (Gibco, Cat#11668-019) according to the manufacturer's protocol. Transfected clones were isolated by single colony purification and clones were screened for receptor expression using a whole cell, ^3H-CP 55,940 radioligand binding assay. HEK-293 stable cells were maintained in Dulbecco's modified Eagles medium (DMEM) containing 10% fetal bovine serum, 2 mM L-glutamine and 0.5 mg/mL G-418.
Membranes were isolated from transfected cells as follows. Monolayers of cultured cells were washed twice with phosphate-buffered saline (PBS). […] Protein concentration of membrane suspensions were measured by Bradford Protein Assay using bovine serum albumin as the standard (BioRad catalog #500-0006). […]
Radioligand binding assays were performed by incubating membranes (2-10 ug protein) prepared from HEK-293 cells expressing recombinant human cannabinoid receptor, CB1, at room temperature with 0.5 nM cannabinoid receptor agonist, [^3H]-CP 55,940 (Perkin Elmer, catalog #NET1051) in 0.2 mL of binding buffer (50 mM Tris-HCl, pH 7.5, 5 mM MgCl2, 2.5 mM EDTA) and 0.1% fatty acid free bovine serum albumin (Sigma Cat. #A0821) for 90 minutes. […] The radioactivity bound to the filters was counted with 0.05 mL of liquid scintillant (UltraGold MV, PerkinElmer catalog #6013159) in a scintillation counter (Perkin Elmer Microbeta instrument). Nonspecific binding was determined in the presence of unlabeled 1 uM CP 55,940 (Sigma Aldrich, catalog #C1112). Binding data were analyzed using GraphPad Prism (GraphPad Software, Inc. San Diego, Calif.).

T1 sequence (P21554 whole entry): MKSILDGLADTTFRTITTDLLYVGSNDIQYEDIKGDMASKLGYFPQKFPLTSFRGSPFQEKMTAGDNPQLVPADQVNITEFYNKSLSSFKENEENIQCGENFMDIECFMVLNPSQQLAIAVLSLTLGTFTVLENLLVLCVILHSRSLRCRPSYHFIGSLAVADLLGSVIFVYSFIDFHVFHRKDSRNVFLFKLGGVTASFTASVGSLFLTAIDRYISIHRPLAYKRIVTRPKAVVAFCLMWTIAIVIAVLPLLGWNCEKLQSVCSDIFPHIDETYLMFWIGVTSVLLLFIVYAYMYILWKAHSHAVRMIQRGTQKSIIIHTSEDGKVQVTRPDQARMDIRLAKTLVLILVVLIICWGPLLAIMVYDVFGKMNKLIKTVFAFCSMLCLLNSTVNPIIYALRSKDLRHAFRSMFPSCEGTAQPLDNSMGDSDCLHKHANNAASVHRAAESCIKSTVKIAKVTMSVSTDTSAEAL

`COc1cc(NC(=O)C(=O)c2c(C)n(Cc3ncc(Cl)cc3F)c3cc(F)c(OC)cc23)ccn1` [Compound 99, 2-(1-((5-chloro-3-fluoropyridin-2-yl)methyl)-6-fluoro-5-methoxy-2-methyl-1H-indol-3-yl)-N-(2-methoxypyridin-4-yl)-2-oxoacetamide] and `COc1cc(NC(=O)C(=O)c2c(C)n(Cc3ncc(F)cc3F)c3cc(F)c(OC)cc23)ccn1` [Compound 101, 2-(1-((3,5-difluoropyridin-2-yl)methyl)-6-fluoro-5-methoxy-2-methyl-1H-indol-3-yl)-N-(2-methoxypyridin-4-yl)-2-oxoacetamide] fall in the same range of IC50: 1 to 10 µM for the first, 1 to 10 µM for the second.

`COc1ccc2c(c1)c(C(=O)C(=O)Nc1ccnc(OC)c1)c(C)n2Cc1ncc(Cl)cc1OC` [Compound 100, 2-(1-((5-chloro-3-methoxypyridin-2-yl)methyl)-5-methoxy-2-methyl-1H-indol-3-yl)-N-(2-methoxypyridin-4-yl)-2-oxoacetamide] showed an IC50 of over 10 µM.
